Measured values published in EP2102204B1, “NEW AMINOPYRROLO[1,2- A]INDOLE ET AMINOPYRIDAZINO[1,6-A]INDOLE DERIVATIVES, METHOD FOR PREPARING THE SAME AND PHARMACEUTICAL COMPOSITIONS CONTAINING THE SAME” (Les Laboratoires Servier, priority 2007, dated 2008).
Where two headings read alike, the source gives them in different places.

Assays:
[1] = test system: protéine tyrosine hydroxylase (TH); assay: Induction of tyrosine hydroxylase in the locus coeruleus of mice (immunodetection and image analysis of brain sections); assay type: in vivo, souris Balb/C; settings: i.p. 20 mg/kg, single injection, 3 days after, % par rapport à la valeur moyenne du groupe témoin; for quantité de TH au niveau du LC, coupe 1: coupe 1 du LC (sens antérieur vers postérieur); for quantité de TH au niveau du LC, coupe 2: coupe 2 du LC (sens antérieur vers postérieur); for quantité de TH au niveau du LC, coupe 3: coupe 3 du LC (sens antérieur vers postérieur); for quantité de TH au niveau du LC, coupe 4: coupe 4 du LC (sens antérieur vers postérieur); for quantité de TH au niveau du LC, coupe 5: coupe 5 du LC (sens antérieur vers postérieur); for quantité de TH au niveau du LC, coupe 6: coupe 6 du LC (sens antérieur vers postérieur); for quantité de TH au niveau du LC, coupe 7: coupe 7 du LC (sens antérieur vers postérieur); for quantité de TH au niveau du LC, coupe 8: coupe 8 du LC (sens antérieur vers postérieur)
Description: Il est recherché, parmi les dérivés, ceux qui sont capables d'induire une augmentation de la protéine tyrosine hydroxylase (TH) dans le cerveau de la souris Balb/C, au niveau du locus coeruleus (LC).
Les animaux utilisés sont des souris mâles de la lignée pure Balb/C (Charles River Laboratories), âgées de 7 à 8 semaines au moment du traitement.
Les souris reçoivent une injection unique par voie intrapéritonéale du composé à tester, dissous dans une solution d'HCl 0,04 M (contrôle correspondant : HCl […]) si le composé est suffisamment soluble, ou dans l'huile d'olive 90 % / DMSO 10 % (contrôle correspondant : huile d'olive 90 % / DMSO 10 %) pour les composés insolubles en milieu aqueux.
Trois jours après l'injection de chaque molécule, tous les animaux sont sacrifiés par décapitation. Les cerveaux extraits sont ensuite congelés dans de l'azote liquide et conservés à -80° C.
Des coupes coronales de 8 microns d'épaisseur sont pratiquées le long de l'axe postéro-antérieur du LC et fixées. Les coupes sont transférées sur membranes Immobilon-P. La TH est mesurée par immunodétection et analyse d'image.

[2] = Prediction of metabolic stability on liver microsomes; assay type: in vitro ADME; settings: 10^-7 M, 0,33 mg prot/ml, NADPH, 0-60 minutes
Protocol: La prédiction de stabilité métabolique est testée par incubation des dérivés à la concentration de 10^-7 M en présence de microsomes hépatiques de souris, rat ou d'homme (0,33 mg prot/ml). Après addition de NADPH (nicotinamide adénine dinucléotide phosphate, forme réduite), des prélèvements sont réalisés à 0, 5, 15, 30 et 60 minutes. La réaction enzymatique est arrêtée avec le méthanol (VN). La protéine est précipitée par centrifugation et le surnageant analysé par LC-MS-MS. La bonne stabilité métabolique de ces dérivés permet d'envisager un traitement per os. TABLEAU III

[3] = test system: cellules endothéliales confluentes de capillaires bovins; assay: Prediction of blood-brain barrier passage (permeability across endothelial cell layer on filter); assay type: in vitro ADME; parameters: key: élevé; intermédiaire; faible; settings: 20 µM; LC-MS-MS in lower compartment after 10, 20, 30, 40 et 60 minutes; result as class
Protocol: Les substances sont incubées à 20 µM dans le compartiment supérieur d'une double cuve séparé du compartiment inférieur soit par un filtre de polycarbonate seul, soit par le même filtre recouvert de cellules endothéliales confluentes de capillaires bovins. L'évaluation de la cinétique de perméabilité est réalisée par quantification LC-MS-MS de la substance inchangée dans le compartiment inférieur après 10, 20, 30, 40 et 60 minutes. Les dérivés testés présentent un passage généralement élevé de la BHE favorisant la cible neurologique. Les résultats sont rendus sous forme de classes : élevé, intermédiaire, faible. Ainsi, l'exemple 17 présente un passage élevé de la BHE.

[4] = test system: récepteurs sigma (σ); assay: Receptor affinity, displacement of labelled specific ligand (haloperidol); assay type: binding
Description: (§1) L'affinité pour les récepteurs est déterminée selon les méthodes habituelles de relation entre le ligand spécifique et le récepteur, qui peut être d'origine animale ou un recombinant humain. Elle a été déterminée par la méthode du déplacement du ligand spécifique marqué par le composé étudié, et exprimée par la constante de dissociation Ki. L'affinité réceptorielle pour 28 récepteurs classiques a ainsi été étudiée. L'étude montre que l'induction de TH observée ne passe pas par une affinité vis-à-vis des récepteurs habituellement touchés par les produits psychotropes, comme les récepteurs adrénergiques alpha (de type α2), 5HT (de type 5HT2A), dopaminergiques (de type D1 et D2). Quelques dérivés montrent une affinité non négligeable pour les récepteurs sigma (σ) (ligand halopéridol) ou muscarinique (M). TABLEAU II

[5] = target: 5HT2A (Homo sapiens, UniProt P28223); assay: Receptor affinity, displacement of labelled specific ligand; assay type: binding
Description: as §1

[6] = test system: récepteurs adrénergiques alpha (de type α2); assay: as above; assay type: binding; settings: concentration 10^-5 M
Description: as §1

[7] = target: D1 (Homo sapiens, UniProt P21728); assay: as above; assay type: binding; settings: concentration 10^-5 M
Description: as §1

[8] = read-out: % d'inhibition 5HT2A, concentration 10^-5 M

5HT2A, sequence (P28223 whole entry, species assumed): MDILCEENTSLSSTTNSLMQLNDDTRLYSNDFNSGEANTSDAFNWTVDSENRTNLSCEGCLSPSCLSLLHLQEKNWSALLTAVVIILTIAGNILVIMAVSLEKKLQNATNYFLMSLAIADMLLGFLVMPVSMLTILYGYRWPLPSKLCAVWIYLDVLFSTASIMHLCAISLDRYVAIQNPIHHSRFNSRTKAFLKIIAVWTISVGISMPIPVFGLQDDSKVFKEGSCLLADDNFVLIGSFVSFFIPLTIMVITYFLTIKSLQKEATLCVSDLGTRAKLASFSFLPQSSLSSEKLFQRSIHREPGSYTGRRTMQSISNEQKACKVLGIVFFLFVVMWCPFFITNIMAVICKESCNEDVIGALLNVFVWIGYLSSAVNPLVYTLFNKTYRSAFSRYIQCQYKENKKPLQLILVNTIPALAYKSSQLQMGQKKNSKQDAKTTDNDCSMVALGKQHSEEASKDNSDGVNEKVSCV
D1, sequence (P21728 whole entry): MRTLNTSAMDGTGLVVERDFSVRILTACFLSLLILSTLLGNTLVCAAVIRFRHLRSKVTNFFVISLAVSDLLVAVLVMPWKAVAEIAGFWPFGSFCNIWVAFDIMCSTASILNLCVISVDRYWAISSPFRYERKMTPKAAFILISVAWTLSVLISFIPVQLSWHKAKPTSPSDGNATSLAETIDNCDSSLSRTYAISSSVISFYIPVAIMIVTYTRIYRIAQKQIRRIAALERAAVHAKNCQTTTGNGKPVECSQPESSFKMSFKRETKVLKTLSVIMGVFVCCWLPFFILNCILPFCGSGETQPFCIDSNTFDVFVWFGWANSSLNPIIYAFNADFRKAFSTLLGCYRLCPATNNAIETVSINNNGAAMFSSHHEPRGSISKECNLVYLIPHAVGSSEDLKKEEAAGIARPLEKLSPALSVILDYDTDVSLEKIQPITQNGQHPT

| passage de la BHE [3] | % d'inhibition σ ([4]; concentration 10^-7 M) | Structure (SMILES) | quantité de TH au niveau du LC, coupe 1 [1] | quantité de TH au niveau du LC, coupe 2 [1] | quantité de TH au niveau du LC, coupe 3 [1] | quantité de TH au niveau du LC, coupe 4 [1] | quantité de TH au niveau du LC, coupe 5 [1] | quantité de TH au niveau du LC, coupe 6 [1] | quantité de TH au niveau du LC, coupe 7 [1] | quantité de TH au niveau du LC, coupe 8 [1] | % de prédiction de stabilité métabolique sur microsomes hépatiques ([2]; Homme) | % de prédiction de stabilité métabolique sur microsomes hépatiques ([2]; Rat) | % de prédiction de stabilité métabolique sur microsomes hépatiques ([2]; Souris) | % d'inhibition σ ([4]; concentration 10^-5 M) | inhibition at 10 µM [5, 8] | % d'inhibition α2 [6] | inhibition at 10 µM ([5]; concentration 10^-5 M, read-out: % d'inhibition 5HT2A) | inhibition at 10 µM ([7]; read-out: % d'inhibition D1) | inhibition at 0.1 µM ([5]; read-out: % d'inhibition 5HT2A, concentration 10^-7 M) | % d'inhibition D1 [7] |
| --- | --- | --- | --- | --- | --- | --- | --- | --- | --- | --- | --- | --- | --- | --- | --- | --- | --- | --- | --- | --- |
|  |  | O=C1NN2c3ccccc3C[C@H]2[C@@H]2NCCC[C@H]12 (racemic) [Exemple 8, (4aSR,11aSR, 11bRS)-1,2,3,4,4a,11,11a,11b-Octahydro-1,6,6a-triazabenzo[a]fluorén-5-one] | 59% | 61% | 59% | 50% | 33% | 17% | 9% | 5% | 80% | 52% | 86% |  |  |  |  |  |  |  |
| élevé |  | CCCN1CC[C@H]2c3ccccc3N3NC(=O)C[C@@H]1[C@@H]23 (racemic) [Exemple 17, (3aRS,6aSR,10cRS)-4-Propyl 3a,4,5,6,6a,10c-hexahydro-3H-1,4,10b-triazafluoranthén-2-one] | 73% | 72% | 56% | 38% | 34% | 36% | 13% | 3% |  |  |  |  |  |  |  |  |  |  |
|  | 10% | C=CCN1CCC[C@@H]2C(=O)N3c4ccc(OC)cc4C[C@@H]3[C@H]21 (racemic) [Exemple 19, (4aSR,11aRS,11bSR)-1-Allyl-9-méthoxy-1,2,3,4,4a,11,11a,11b-octahydro-pyrido[2',3':3,4]pyrrolo[1,2-a]indol-5-one] | 49% | 48% | 55% | 50% | 21% | 15% | 6% | 9% |  |  |  | 36% |  |  |  |  |  |  |
|  |  | CN1CCC[C@@H]2C(=O)N3c4ccc(Cl)cc4C[C@H]3[C@@H]21 (racemic) [Exemple 27, (4aSR,11aSR,11bRS)-9-Chloro-1-méthyl-1,2,3,4,4a,11,11a,11b-octahydropyrido[2',3':3,4]pyrrolo[1,2-a]indol-5-one] | 55% | 67% | 54% | 46% | 26% | 29% | 3% | 5% |  |  |  | 10% | 84% | 10% |  |  |  |  |
|  |  | O=C1[C@H]2CCCN[C@@H]2[C@H]2Cc3ccccc3N12 (racemic) [Exemple 47, (4aSR,11aRS,11bSR)-1,2,3,4,4a,11,11a,11b-Octahydropyrido [2',3':3,4]pyrrolo[1,2-a]indol-5-one] |  |  |  |  |  |  |  |  | 86% | 85% | 99% |  |  |  |  |  |  |  |
|  |  | CN1CCC[C@@H]2C(=O)N3c4ccccc4C[C@H]3[C@@H]21 [Exemple 3, (4aSR, 11aSR, 11bRS)-1-Méthyl 1,2,3,4,4a,11,11a,11b-octahydropyrido[2'3':3,4]pyrrolo[1,2-a]indol-5-one] | 104% | 97% | 69% | 58% | 49% | 31% | 10% | 8% | 59% | 31% | 61% |  |  |  | 84% | 39% |  |  |
|  |  | C=CCN1CCC[C@H]2C(=O)N3c4ccccc4C[C@H]3[C@@H]21 [Exemple 44, (4aR,11aS,11bR)-1-allyl-1,2,3,4a,11,11a,11b-octahydropyrido[2':3':3.4]pyrrolo[1,2-a]indol-5-one] | 83% | 99% | 78% | 58% | 38% | 29% | 18% | 3% |  |  |  |  |  |  |  |  |  |  |
|  |  | CN1CCC[C@@H]2C(=O)N3c4ccccc4C[C@H]3[C@@H]21 [Exemple 45, (4aS,11aS,11bR)-1-Méthyl-1,2,3,4,4a,11,11a,11b-octahydropyrido[2',3':3,4]pyrrolo[1,2-a]indol-5-one] |  |  |  |  |  |  |  |  |  |  |  |  | 92% | 23% |  |  | 13% | 49% |
|  |  | CN1CCC[C@H]2C(=O)N3c4ccccc4C[C@@H]3[C@H]21 [Exemple 52, (4aR,11aR,11bS)-1-méthyl-1,2,3,4,4a,11,11a,11b-octahydropyrido[2'3':3,4]pyrrolo[1,2-a]indol-5-one] | 69% | 86% | 79% | 77% | 40% | 22% | 12% | 1% |  |  |  |  |  |  |  |  |  |  |
